Values joined by “and” are separate entries in the source; they are usually repeats but may differ in a detail not shown here. Equal entries are not always repeated.
System: broad-leaf and grass weed species
Experiment: Field testing of pre-emergence application of dicamba and acetochlor in Argentina and/or South Africa (Example 10);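 further: percent weed control in field trials, rated at 14 days (early) and 28 days (late) after treatment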
Settings: for percent control X (ACETOCHLOR ALONE): early rating (14 day); for X (acetochlor alone): late rating (28 day)

CCOCN(C(=O)CCl)c1c(C)cccc1CC [Acetochlor, 2-chloro-N-(ethoxymethyl)-6′-ethyl-o-acetotoluidide]
percent control X (ACETOCHLOR ALONE) (AMADE, 630 g/ha): 96.7% | X (acetochlor alone) (AMADE, 630 g/ha): 57.1% | percent control X (ACETOCHLOR ALONE) (AMADE, 1260 g/ha): 99.4% | X (acetochlor alone) (AMADE, 1260 g/ha): 69.4% | percent control X (ACETOCHLOR ALONE) (AMAQU, 630 g/ha): 64.3% | X (acetochlor alone) (AMAQU, 630 g/ha): 48.8% | percent control X (ACETOCHLOR ALONE) (AMAQU, 1260 g/ha): 81.4% | X (acetochlor alone) (AMAQU, 1260 g/ha): 70.0% | percent control X (ACETOCHLOR ALONE) (ANOCR, 630 g/ha): 47.0% | X (acetochlor alone) (ANOCR, 630 g/ha): 31.6% | percent control X (ACETOCHLOR ALONE) (ANOCR, 1260 g/ha): 59.5% | X (acetochlor alone) (ANOCR, 1260 g/ha): 45.2% | percent control X (ACETOCHLOR ALONE) (BIDPI, 630 g/ha): 17.5% | X (acetochlor alone) (BIDPI, 630 g/ha): 0.0% | percent control X (ACETOCHLOR ALONE) (BIDPI, 1260 g/ha): 47.5% | X (acetochlor alone) (BIDPI, 1260 g/ha): 27.5% | X (acetochlor alone) (BRAER, 630 g/ha): 47.5% | X (acetochlor alone) (BRAER, 1260 g/ha): 65.0% | percent control X (ACETOCHLOR ALONE) (CHEAL, 630 g/ha): 46.7% | X (acetochlor alone) (CHEAL, 630 g/ha): 80.3% | percent control X (ACETOCHLOR ALONE) (CHEAL, 1260 g/ha): 50.0% | X (acetochlor alone) (CHEAL, 1260 g/ha): 77.0% | percent control X (ACETOCHLOR ALONE) (CHRGA, 630 g/ha): 0.0% | X (acetochlor alone) (CHRGA, 630 g/ha): 0.0% | percent control X (ACETOCHLOR ALONE) (CHRGA, 1260 g/ha): 86.0% | X (acetochlor alone) (CHRGA, 1260 g/ha): 10.0% | percent control X (ACETOCHLOR ALONE) (COMBE, 630 g/ha): 0.0% | X (acetochlor alone) (COMBE, 630 g/ha): 0.0% | percent control X (ACETOCHLOR ALONE) (COMBE, 1260 g/ha): 12.5% | X (acetochlor alone) (COMBE, 1260 g/ha): 0.0% | percent control X (ACETOCHLOR ALONE) (CONFA, 630 g/ha): 10.0% | X (acetochlor alone) (CONFA, 630 g/ha): 0.0% | percent control X (ACETOCHLOR ALONE) (CONFA, 1260 g/ha): 77.5% | X (acetochlor alone) (CONFA, 1260 g/ha): 12.5% | percent control X (ACETOCHLOR ALONE) (CYNDA, 630 g/ha): 30.0% | percent control X (ACETOCHLOR ALONE) (CYNDA, 1260 g/ha): 49.2% | percent control X (ACETOCHLOR ALONE) (CYPES, 630 g/ha): 0.0% | X (acetochlor alone) (CYPES, 630 g/ha): 26.3% | percent control X (ACETOCHLOR ALONE) (CYPES, 1260 g/ha): 0.0% | X (acetochlor alone) (CYPES, 1260 g/ha): 33.3% | percent control X (ACETOCHLOR ALONE) (CYPRO, 630 g/ha): 44.1% | X (acetochlor alone) (CYPRO, 630 g/ha): 17.1% | percent control X (ACETOCHLOR ALONE) (CYPRO, 1260 g/ha): 51.0% | X (acetochlor alone) (CYPRO, 1260 g/ha): 25.8% | percent control X (ACETOCHLOR ALONE) (DATFE, 630 g/ha): 62.2% | X (acetochlor alone) (DATFE, 630 g/ha): 44.5% | percent control X (ACETOCHLOR ALONE) (DATFE, 1260 g/ha): 72.3% | X (acetochlor alone) (DATFE, 1260 g/ha): 58.5% | percent control X (ACETOCHLOR ALONE) (DIGER, 630 g/ha): 0.0% | X (acetochlor alone) (DIGER, 630 g/ha): 0.0% | percent control X (ACETOCHLOR ALONE) (DIGER, 1260 g/ha): 86.0% | X (acetochlor alone) (DIGER, 1260 g/ha): 12.5% and 12.4% | percent control X (ACETOCHLOR ALONE) (DIGSA, 630 g/ha): 63.1% | X (acetochlor alone) (DIGSA, 630 g/ha): 51.3% | percent control X (ACETOCHLOR ALONE) (DIGSA, 1260 g/ha): 72.1% | X (acetochlor alone) (DIGSA, 1260 g/ha): 59.2% | X (acetochlor alone) (DTTAE, 630 g/ha): 0.0% | X (acetochlor alone) (DTTAE, 1260 g/ha): 10.0% | percent control X (ACETOCHLOR ALONE) (ELEAF, 630 g/ha): 88.3% | X (acetochlor alone) (ELEAF, 630 g/ha): 20.3% | percent control X (ACETOCHLOR ALONE) (ELEAF, 1260 g/ha): 85.9% | X (acetochlor alone) (ELEAF, 1260 g/ha): 28.3% | percent control X (ACETOCHLOR ALONE) (HIBCA, 630 g/ha): 55.0% | X (acetochlor alone) (HIBCA, 630 g/ha): 37.5% | percent control X (ACETOCHLOR ALONE) (HIBCA, 1260 g/ha): 89.5% | X (acetochlor alone) (HIBCA, 1260 g/ha): 96.5% | X (acetochlor alone) (IPOBA, 630 g/ha): 0.0% | X (acetochlor alone) (IPOBA, 1260 g/ha): 0.0% | percent control X (ACETOCHLOR ALONE) (IPOPD, 630 g/ha): 27.5% | X (acetochlor alone) (IPOPD, 630 g/ha): 21.2% | percent control X (ACETOCHLOR ALONE) (IPOPD, 1260 g/ha): 71.3% | X (acetochlor alone) (IPOPD, 1260 g/ha): 63.0% | percent control X (ACETOCHLOR ALONE) (OVERALL, 630 g/ha): 49.8% | percent control X (ACETOCHLOR ALONE) (OVERALL, 1260 g/ha): 64.2% | X (acetochlor alone) (Overall, 630 g/ha): 37.8% | X (acetochlor alone) (Overall, 1260 g/ha): 50.8% | percent control X (ACETOCHLOR ALONE) (PERCENT WEED FREE, 1260 g/ha): 75.5% | percent control X (ACETOCHLOR ALONE) (POROL, 630 g/ha): 38.6% | X (acetochlor alone) (POROL, 630 g/ha): 26.7% | percent control X (ACETOCHLOR ALONE) (POROL, 1260 g/ha): 47.5% | X (acetochlor alone) (POROL, 1260 g/ha): 37.8% | X (acetochlor alone) (Percent Weed Free, 630 g/ha): 53.2% | X (acetochlor alone) (Percent Weed Free, 1260 g/ha): 63.8% | percent control X (ACETOCHLOR ALONE) (RCHBR, 630 g/ha): 57.0% | X (acetochlor alone) (RCHBR, 630 g/ha): 22.5% | percent control X (ACETOCHLOR ALONE) (RCHBR, 1260 g/ha): 87.7% | X (acetochlor alone) (RCHBR, 1260 g/ha): 67.4% | percent control X (ACETOCHLOR ALONE) (TAGMI, 630 g/ha): 89.9% | X (acetochlor alone) (TAGMI, 630 g/ha): 45.8% | percent control X (ACETOCHLOR ALONE) (TAGMI, 1260 g/ha): 95.3% | X (acetochlor alone) (TAGMI, 1260 g/ha): 65.0% | percent control X (ACETOCHLOR ALONE) (XANST, 630 g/ha): 59.7% | X (acetochlor alone) (XANST, 630 g/ha): 33.7% | percent control X (ACETOCHLOR ALONE) (XANST, 1260 g/ha): 72.6% | X (acetochlor alone) (XANST, 1260 g/ha): 37.7%

From patent publication US20150313228A1, “SYNERGISTIC HERBICIDAL COMBINATIONS AND METHODS OF USE” (priority 2012, published 2015)
